Data from patent US20190111059A1, “COMPOSITIONS AND METHODS FOR TREATING AUTISM SPECTRUM DISORDER” (Marinus Pharmaceuticals, Inc., priority 2017, published 2019).
Where a name gives a salt, the structure may show the parent alone.

Legend:
[1] = cited from earlier work
[2] = test system: children with non-syndromic autism spectrum disorder (ASD) and language impairment; experiment: Randomized placebo-controlled trial: Autism Symptoms Questionnaire (ASQ); assay type: in vivo, human; settings: lower = less autism symptoms; for ASQ Stereotypic behavior, estimated effect / ASQ Total score, estimated effect: calcium salt
Experimental: The Autism Symptoms Questionnaire (“ASQ) is a 34-item checklist (The Center for Autism and Related Disorders) that assesses social interaction (12 items, range 0-4), stereotyped behavior (7 items, range 0-4), communication symptoms (15 items, range 0-5) and total symptoms (34 items, […]). […] This two-arm double-blind randomized placebo-controlled parallel study with a 1:1 allocation was performed at Arkansas Children's Research Institute (Little Rock, Ark., USA) from 4 Jun. 2012 to 22 Nov. 2013. Parent and teacher questionnaires were requested at baseline and 6 and 12 weeks after starting treatment. Parents were asked to deliver baseline questionnaires to teachers or therapists. After the first visit, questionnaires were mailed to the parents and teachers at least 1 week prior to the target date of completion. Parents were asked to bring the completed teacher and parent 12-week questionnaires to the final assessment. Other questionnaires were returned in a preaddressed postage-paid envelope. The target dose of the intervention (INN: DL folinic acid calcium salt; USAN: leucovorin calcium) was 2 mg kg^−1 per day (maximum 50 mg per day) in two equally divided doses with half of the target dose given during the first 2 weeks. Dye-free, milk-product-free, vegetarian capsules were provided in three strengths (5, 10 and 25 mg) by Lee Silsby Compounding Pharmacy (Cleveland Heights, Ohio, USA). Certificate of analysis was provided for each capsule strength by an independent analytical service (Eagle Analytical Services, Houston, Tex., USA) for each batch of capsules produced. In all cases, potency was at least 99%. Secondary outcomes. Secondary outcome measures included the Ohio Autism Clinical Impression Scale (OACIS), Vineland Adaptive Behavior Scale 2nd Edition (VABS) Survey Interview Form and several questionnaires. Parents and teachers were asked to complete the Aberrant Behavior Checklist (ABC), Social Responsiveness Scale (SRS) and Behavioral Assessment System for Children 2nd Edition (BASC). Only parents were asked to complete the Autism Impact Measure (AIM) and Autism Symptoms Questionnaire (ASQ). Secondary outcome measures were analyzed using the mixed-model regression. Because of the large number of secondary outcomes, correction for multiple comparisons was conducted using the false discovery rate.

[3] = test system: children with non-syndromic autism spectrum disorder (ASD) and language impairment; experiment: Randomized placebo-controlled trial: Social Responsiveness Scale (SRS); assay type: in vivo, human; settings: lower = less social symptoms
From the text: The Social Responsiveness Scale (“SRS”) is a 65-item questionnaire that measures social skills across five domains: Social Awareness (8 items, meaningful change 7.1), Social Cognition (12 items, meaningful change 5.8), Social Communication (22 items, meaningful change 4.2), Social Motivation (11 items, meaningful change 5.7), Autistic Mannerisms (12 items, meaningful change 5.5) and total (65 items). Each item is rated 0 to 3 with higher scores indicating greater severity. Standardized T-scores (mean 50, standard deviation 10) range 30-90. This two-arm double-blind randomized placebo-controlled parallel study with a 1:1 allocation was performed at Arkansas Children's Research Institute (Little Rock, Ark., USA) from 4 Jun. 2012 to 22 Nov. 2013. Parent and teacher questionnaires were requested at baseline and 6 and 12 weeks after starting treatment. Parents were asked to deliver baseline questionnaires to teachers or therapists. After the first visit, questionnaires were mailed to the parents and teachers at least 1 week prior to the target date of completion. Parents were asked to bring the completed teacher and parent 12-week questionnaires to the final assessment. Other questionnaires were returned in a preaddressed postage-paid envelope. The target dose of the intervention (INN: DL folinic acid calcium salt; USAN: leucovorin calcium) was 2 mg kg^−1 per day (maximum 50 mg per day) in two equally divided doses with half of the target dose given during the first 2 weeks. Dye-free, milk-product-free, vegetarian capsules were provided in three strengths (5, 10 and 25 mg) by Lee Silsby Compounding Pharmacy (Cleveland Heights, Ohio, USA). Certificate of analysis was provided for each capsule strength by an independent analytical service (Eagle Analytical Services, Houston, Tex., USA) for each batch of capsules produced. In all cases, potency was at least 99%. Secondary outcomes. Secondary outcome measures included the Ohio Autism Clinical Impression Scale (OACIS), Vineland Adaptive Behavior Scale 2nd Edition (VABS) Survey Interview Form and several questionnaires. Parents and teachers were asked to complete the Aberrant Behavior Checklist (ABC), Social Responsiveness Scale (SRS) and Behavioral Assessment System for Children 2nd Edition (BASC). Only parents were asked to complete the Autism Impact Measure (AIM) and Autism Symptoms Questionnaire (ASQ). Secondary outcome measures were analyzed using the mixed-model regression. Because of the large number of secondary outcomes, correction for multiple comparisons was conducted using the false discovery rate.

[4] = test system: children with neurodevelopmental regression and neurological abnormalities (cerebral folate deficiency); settings: six children with cerebral folate deficiency; cited from earlier work
[5] = vs placebo, mixed-model regression
[6] = vs placebo, mixed-model regression, listed as folinic acid

SMILES: Nc1nc2c(c(=O)[nH]1)N(C=O)C(CNc1ccc(C(=O)N[C@@H](CCC(=O)O)C(=O)O)cc1)CN2 (mixture of isomers) [Folinic acid, DL folinic acid calcium salt]
- Absorption following oral administration [1]: rapidly absorbed
- ASQ Stereotypic behavior, 12-week assessment mean ([2]; 2 mg kg^−1 per day, 12 weeks, baseline 3.1): 3.2 Raw Score
- ASQ Social, 12-week assessment mean ([2]; 2 mg kg^−1 per day, 12 weeks, baseline 3.5): 3.3 Raw Score
- ASQ Communication, 12-week assessment mean ([2]; 2 mg kg^−1 per day, 12 weeks, baseline 4.7): 4.7 Raw Score
- ASQ Total score, 12-week assessment mean ([2]; 2 mg kg^−1 per day, 12 weeks, baseline 11.3): 11.2 Raw Score
- ASQ Communication, estimated effect [2, 5]: 0.0 Raw Score
- ASQ Social, estimated effect [2, 5]: −0.1 Raw Score
- ASQ Stereotypic behavior, estimated effect [2, 5]: −0.2 Raw Score
- ASQ Total score, estimated effect [2, 5]: −0.3 Raw Score
- ASQ Stereotypic behavior, estimated effect [2, 6]: significantly improved
- ASQ Total score, estimated effect [2, 6]: significantly improved
- SRS Motivation, 12-week assessment mean ([3]; 2 mg kg^−1 per day, 12 weeks, baseline 75.5): 70.3 T-Scores
- SRS Awareness, 12-week assessment mean ([3]; 2 mg kg^−1 per day, 12 weeks, baseline 79.2): 78.7 T-Scores
- SRS Communication, 12-week assessment mean ([3]; 2 mg kg^−1 per day, 12 weeks, baseline 82.5): 80.1 T-Scores
- SRS Mannerisms, 12-week assessment mean ([3]; 2 mg kg^−1 per day, 12 weeks, baseline 83.4): 80.5 T-Scores
- SRS Cognition, 12-week assessment mean ([3]; 2 mg kg^−1 per day, 12 weeks, baseline 83.7): 79.3 T-Scores
- SRS Total, 12-week assessment mean ([3]; 2 mg kg^−1 per day, 12 weeks, baseline 84.9): 82.2 T-Scores
- SRS Awareness, estimated effect [3, 5]: 0.3 T-Scores
- SRS Cognition, estimated effect [3, 5]: 0.8 T-Scores
- SRS Communication, estimated effect [3, 5]: 1.5 T-Scores
- SRS Mannerisms, estimated effect [3, 5]: 0.9 T-Scores
- SRS Motivation, estimated effect [3, 5]: 0.2 T-Scores
- SRS Total, estimated effect [3, 5]: 0.8 T-Scores
- CSF folate concentrations [4]: normalized
- Neurological symptoms [4]: significantly improved
